Literature values in patent US20170065667A1, “METHODS FOR SYNCHRONIZATION OF ESTROUS CYCLES AND OVULATION FOR FIXED TIME ARTIFICIAL INSEMINATION IN CATTLE” (Parnell Technologies Pty Ltd., priority 2014, published 2017).

Tested on: lactating dairy cows
Settings: dinoprost 25 mg, cloprostenol 0.5 mg; cited from earlier work

## CCCCC[C@H](O)/C=C/[C@@H]1[C@@H](C/C=C\CCCC(=O)O)[C@@H](O)C[C@H]1O [dinoprost]
  percentage of cows with complete CL regression: 80%
